Values joined by “and” are separate entries in the source; they are usually repeats but may differ in a detail not shown here. Identical values can stand only once. “Also recorded” adds a separate entry of the source. Like-named read-outs stand apart in the source and are kept apart here.
Tests used:
[1] = Cytotoxic evaluation on the Hela cell line (MTT assay); format: cell-based; conditions: human, Hela cells
Protocol: The evaluation of the tested molecules’ cytotoxicity on the Hela cell line was conducted according to the method of Mosman with slight modifications. Briefly, cells (1 × 10^5 cells/mL) in 100 µL of complete medium, (MEM supplemented with 10% fetal bovine serum, 2 mM L-glutamine and antibiotics (100 U/mL penicillin and 100 µg/mL streptomycin) were seeded into each well of the 96-well plates and incubated at 37 °C and 5% CO2. After a 24 h incubation, 100 µL of medium with various product concentrations and appropriate controls were added and the plates were incubated for 72 h at 37 °C and 5% CO2. Each plate-well was then microscope-examined to detect possible precipitate formation before the medium was aspirated from the wells. MTT solution (100 µL, 0.5 mg/mL in RPMI) was then added to each well. Cells were incubated for 2 h at 37 °C and 5% CO2. After this time, the MTT solution was removed and DMSO (100 µL) was added to dissolve the resulting formazan crystals. Plates were shaken vigorously (300 rpm) for 5 min. The absorbance was measured at 570 nm with a microplate spectrophotometer (Eon BioTek). DMSO was used as blank and doxorubicin (purchased from Sigma Aldrich) as positive control. CC50 were calculated by non-linear regression analysis processed on dose response curves, using TableCurve 2D V5 software (San Jose, CA, USA). CC50 values represent the mean value calculated from three independent experiments.

NQO2 = target: T1, NQO2 (Homo sapiens, UniProt P16083); assay: EPR measurement of free radicals (ROS) produced after metabolism by NQO2; format: biochemical; conditions: for radical production after reduction by NQO2: EPR with DMPO spin trap; for radical production after adding the specific NQO2 inhibitor S29434: S29434 30 µM; for ROS after NQO2 Reduction: purified NQO2 20 µg/mL, compound 125 µM, BNAH 1 mM, DMPO 125 mM, grades - to + + + + +
T1 construct: The experiments were conducted with purified enzyme NQO2 (20 µg/mL)
T1 sequence (P16083 1-231): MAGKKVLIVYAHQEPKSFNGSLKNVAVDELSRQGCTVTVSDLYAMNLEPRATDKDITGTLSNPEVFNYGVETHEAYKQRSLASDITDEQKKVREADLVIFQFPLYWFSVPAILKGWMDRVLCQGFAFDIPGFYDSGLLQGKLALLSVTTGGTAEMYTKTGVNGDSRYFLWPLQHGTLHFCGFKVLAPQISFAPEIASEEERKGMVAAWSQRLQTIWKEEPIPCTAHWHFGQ
Protocol: As in previous work, we used an indirect assay to characterize the substrates. […] Using the capacity of NQO2 to reduce quinones into hydroquinones or quinols, we incubated the substrate candidates with the enzyme and its co-substrate, a synthetic hydride donor, N-benzyldihydronicotinamide. […] Thus, using an EPR-based assay, it was possible to evaluate the potency of the process by quantifying those bursts by measuring for the presence of free radicals. The rationale of the process was based on the simple idea that such substrates would generate bursts of ROS, which are particularly toxic for infected red cells.
We measured the ability of the selected compounds to produce superoxide radicals during the redox cycle of NQO2 by EPR spectroscopy. The following compounds were used as molecular tools: Menadione (Figure 1) as a reference compound and NQO2 substrate, S29434 as a specific NQO2 inhibitor [17] and dimethyl-pyrroline-N-oxide (DMPO) as a spin trap reagent to characterize ROS.
The experiments were conducted with purified enzyme NQO2 (20 µg/mL), DMPO (125 mM), tested compounds (125 µM) and BNAH (1 mM). For inhibition assays, we added S29434 (30 µM). All analyses were performed at room temperature. EPR spectra were recorded with a Bruker EMX-8/2.7 (9.86 GHz) with a high-sensitivity cavity (4119/HS 0205) and a gaussmeter (Bruker, Wissembourg, France), at X-band. For analyses, we used a flat quartz cell, FZKI160-5 × 0.3 mm (Magnettech, Berlin, Germany). We performed data processing and spectrum acquisition with WINEPR software (Bruker). Scanning parameters were: Number of scans, 5; magnetic field, 3460–3560 G; sweep width, 100 G; scan rate, 1.2 G/s; modulation amplitude, 1 G; sweep time, 83.88 s; time constant, 40.96 ms; modulation frequency, 100 kHz; and microwave power, 20 mW. The EPR spectra were analyzed as reported previously. The EPR spectrum was presented with the magnetic field on the x-axis in gauss (g) and the intensity of the peaks on the y-axis in arbitrary units (a.u.).

[2] = test system: P. falciparum strain FcB1; assay: In vitro antiplasmodial activity, SYBR Green I-based fluorescence assay; format: cell-based, Plasmodium falciparum
Protocol: The in vitro anti-malarial activity was investigated using the SYBR Green I-based fluorescence assay. The asexual intra-erythrocytic stage of P. falciparum laboratory strain FcB1 (chloroquine-resistant strain) was maintained in RPMI 1640 medium containing l-glutamine 200 µM, Hepes 25 mM and 5% human serum (Etablissement Français du Sang—EFS, Toulouse, France). For anti-malarial drug assays, stock solutions of compounds were diluted serially in RPMI 1640 culture medium to test final concentrations between 0.001 and 1 µg/mL in triplicates in a 96-well plate. The final concentration of DMSO was 0.5%. A suspension of sorbitol-synchronized, infected red blood cells (iRBCs) was adjusted to 1% parasitemia and 2% hematocrit in complete medium and added to the wells. Negative controls were prepared with a suspension of iRBCs and 0.5% DMSO. Chloroquine was used as the positive control. Test plates were incubated at 37 °C for 48 h. Afterwards, 100 μL SYBR Green I fluorescent lysis buffer were added to each well and incubated in a dark place at room temperature for 2 h. Fluorescence data were acquired using a fluorescence plate reader (BMG Fluostar Galaxy Labtech) with excitation and emission wavelengths at 485 nm and 518 nm, respectively. The fluorescence values (after subtraction of the background fluorescence of the non-parasitized RBCs) were plotted against the log of the drug concentration, and analyzed by non-linear regression (sigmoidal dose response/variable slope equation) to yield the IC50 (50% inhibitory concentration) that served as a measure of the anti-malarial activity.

[3] = Acute toxicity in healthy Swiss mice; format: in vivo; conditions: for weight variation compared to the vehicle control group: healthy Swiss mice, 50 mg/kg intraperitoneal, Days 7, 14 and 20; for mortality or major behavioral changes: mouse, in vivo, ip, 50 mg/kg
Protocol: Compounds 1 and 3 were diluted in 50% DMSO and tested at 50 mg/kg. Protocols used for acute oral toxicity measurement were previously described. Briefly, mice were randomly divided into three groups of three mice and treated once a day from D0 to D3 by the intraperitoneal route with 200 µL of Compound 1 or Compound 3 at 50 mg/kg, or DMSO 50%.

P. berghei ANKA = assay: Four-days suppressive test, P. berghei ANKA mice model (cerebral malaria); format: in vivo, Plasmodium berghei ANKA in Swiss mice; conditions: for survival rate on D10: 50 mg/kg intraperitoneal D0 to D3, D10
Protocol: (§1) As previously described, the four-days suppressive standard test described by Knight and Peters was used to evaluate antimalarial activity of Compounds 1 and 3. P. chabaudi chabaudi (Pcc) and P. berghei ANKA (PbA) infections in Swiss mice were used as experimental models for uncomplicated and cerebral malaria, respectively. […] On the first day (D0), mice were inoculated intraperitoneally with 0.2 mL of infected blood containing about 1 × 10^6 parasitized erythrocytes. […] All mice groups were treated similarly for four consecutive days (D0–D3). Weight, parasitemia and survival were followed daily. To follow peripheral parasite density, thin blood smears were made daily from tail blood from D3 to D14. Blood smears were fixed with methanol and stained with a fast-acting variation of the May–Grünwald Giemsa staining (RAL 555 kit, RAL diagnostics). Average percentage chemosuppression was calculated at D8 for both infection models as ((A − B)/A) × 100 where A is the average percentage parasitemia in the negative control group and B is the average percentage parasitemia in the test group. Survival was monitored twice daily. The percentage survival was determined over a period of 21 days (D0–D20) and compared between groups.

P. chabaudi chabaudi = assay: Four-days suppressive test, P. chabaudi chabaudi mice model (uncomplicated malaria); format: in vivo, Plasmodium chabaudi chabaudi in Swiss mice; conditions: for Pcc parasite density compared to DMSO treatment: 50 mg/kg intraperitoneal D0 to D3, D8 (peak of parasitemia), p < 0.0001; for weight development at D11 after Pcc infection: 50 mg/kg intraperitoneal D0 to D3, D11; for death after Pcc infection: 50 mg/kg intraperitoneal D0 to D3, monitored 13 days
Protocol: as §1, with “The percentage survival was determined over a period of 21 days (D0–D20) and compared between groups.” left out

[4] = Plasmodium falciparum, FCB1, 48 h, P. falciparum FcB1 (chloroquine-resistant strain), 48 h, read-out: IC50
[5] = 50 mg/kg intraperitoneal D0 to D3
[6] = 50 mg/kg intraperitoneal D0 to D3, D8

SMILES | radical production after reduction by NQO2 (NQO2) | IC50 [2, 4] | ROS after NQO2 Reduction (NQO2; EPR, key not given) | CC50 at 72 h [1] | TI (Therapeutic Index = CC50/IC50) [2] | radical production after adding the specific NQO2 inhibitor S29434 (NQO2; EPR) | other results
COc1ccc2c(c1)C1=C(CCC(C)(C)O1)C(=O)C2=O [Compound 7] | no radicals were detected | 753 ± 484 nM | – | 1660 ± 368 nM | 2.21 | – | –
COc1cccc2c1C1=C(C(=O)C2=O)C(C)(C)C(C)O1 (stereo not shown) [Compound 1] | produced radicals; also recorded: induced a production of ROS | 633 ± 740 nM | + + | 2420 ± 905 nM | 3.83 | decreased | weight variation compared to the vehicle control group [3]: similar; mortality or major behavioral changes [3]: did not cause mortality or major behavioral changes; effect on weight loss and parasitemia during PbA infection (P. berghei ANKA; [5]): did not limit either weight loss or parasitemia; superiority over DMSO (survival) (P. berghei ANKA; [5]): statistically significant until D15; survival rate on D10 (P. berghei ANKA): 80%; % inhibition of parasite density at D8 (P. chabaudi chabaudi; [6]): 74.8% and 90.6%; Pcc parasite density compared to DMSO treatment (P. chabaudi chabaudi): highly reduced; weight development at D11 after Pcc infection (P. chabaudi chabaudi): lost more weight than other groups; death after Pcc infection (P. chabaudi chabaudi): did not cause any death
COc1cccc2c1C(=O)c1c(O)c3c(c(O)c1C2=O)C[C@@](O)(C(=O)CO)C[C@@H]3O[C@H]1C[C@H](N)[C@H](O)[C@H](C)O1 [Doxorubicin, doxorubicin, reference compound] | – | – | – | 311 ± 478 nM | – | – | –
COc1ccc2c(c1)C(=O)C(=O)C1=C2OC(C)C1(C)C (stereo not shown) [Compound 3] | produced radicals; also recorded: induced a production of ROS | 845 ± 334 nM | + + + | 1430 ± 314 nM | 1.70 | decreased | weight variation compared to the vehicle control group [3]: similar; mortality or major behavioral changes [3]: did not cause mortality or major behavioral changes; effect on weight loss and parasitemia during PbA infection (P. berghei ANKA; [5]): did not limit either weight loss or parasitemia; survival rate on D10 (P. berghei ANKA): 100%; % inhibition of parasite density at D8 (P. chabaudi chabaudi; [6]): 90.6% and 74.8%; Pcc parasite density compared to DMSO treatment (P. chabaudi chabaudi): highly reduced; weight development at D11 after Pcc infection (P. chabaudi chabaudi): lost more weight than other groups; death after Pcc infection (P. chabaudi chabaudi): did not cause any death; efficacy on parasite density compared to the CQ treatment (P. chabaudi chabaudi; 50 mg/kg intraperitoneal vs CQ, D8): less effective
CCN(CC)CCCC(C)Nc1ccnc2cc(Cl)ccc12 (stereo not shown) [Chloroquine, chloroquine, reference compound] | – | – | – | – | – | – | IC50 ([2]; Plasmodium falciparum, FCB1, 48 h): 0.164 ± 0.055 nM; % inhibition of parasite density at D8 (P. chabaudi chabaudi; chloroquine 10 mg/kg intraperitoneal D0 to D3, D8): 98.2%

Further lines, with some results ahead:

radical production after reduction by NQO2 (NQO2) | IC50 [2, 4] | ROS after NQO2 Reduction (NQO2; EPR, key not given) | SMILES | CC50 at 72 h [1] | TI (Therapeutic Index = CC50/IC50) [2] | radical production after adding the specific NQO2 inhibitor S29434 (NQO2; EPR) | other results
no radicals were detected | 630 to 850 nM | – | COc1ccc2c(c1)C1=C(C(=O)C2=O)C(C)(C)C(C)O1 (stereo not shown) [Compound 2] | 1250 ± 160 nM | 2.15 | – | IC50 ([2]; P. falciparum FcB1 (chloroquine-resistant strain), 48 h, read-out: IC50): 580 ± 503 nM
no radicals were detected | 1520 ± 853 nM | – | COc1ccc2c(c1)C(=O)C1=C(OC(C)C1(C)C)C2=O (stereo not shown) [Compound 5] | 14900 ± 3230 nM | 9.81 | – | CC50 values fold higher than the IC50 value [2]: 8-9 fold
produced radicals | 1380 ± 627 nM | + + + | COc1ccc2c(c1)C(=O)C1=C(C2=O)C(C)(C)C(C)O1 (stereo not shown) [Compound 4] | 11800 ± 2200 nM | 8.53 | decreased | CC50 values fold higher than the IC50 value [2]: 8-9 fold
produced radicals | 19500 ± 7090 nM | + + + | COc1ccc2c(c1)C(=O)C1=C(OC(C)(C)CC1)C2=O [Compound 6] | > 18400 nM | >0.94 | – | ROS after Inhibition of NQO2 with S29434 (NQO2; EPR, as above plus S29434 30 µM, grades - to + +, key not given): + +
– | – | + + + + + | CC1=CC(=O)c2ccccc2C1=O [Menadione, menadione, reference compound] | – | – | – | –

From article PMC6832513, “Antimalarial Properties of Dunnione Derivatives as NQO2 Substrates” (Molecules, 2019)
